“And” between values parts separate entries of the source, which are not always exact repeats. Equal values may be shown once. Read-outs that look alike come from different tables or passages of the source.
What was measured:
[1] = PK i.v. bolus in healthy and adenine/high-phosphate-diet (uremic) rats; type: in vivo, male Sprague-Dawley rats; design: plasma concentration (Figure 4g): unit not given here; conditions: for AUC(0-inf) / Cmax / clearance / half-life / AUC(0-t) / MRT last: serum, 10 mg/kg i.v. bolus; for AUC(0-t): read-out: AUC0-240 (converted); for MRT last: read-out: MRT0-240 (converted)
Protocol: For many drugs, the PK profile depends on the patient’s renal status. Therefore, (OEG2)2-IP4 PK profile was also determined in an adenine and high-phosphate-diet-induced rat model of uremia, in which the compound was administered after serum creatinine levels had increased by fourfold relative to baseline (Fig. 4g, h). […] Similar results were observed following s.c. administration (Supplementary Table 5).
To study PK in uremic animals, male Sprague-Dawley rats (Charles River Laboratories, L’Arbresle, France) were housed two per cage with free access to water and standard chow (rat/mouse maintenance diet, SSNIFF Spezialdiäten GmbH, Soest, Germany) and submitted to a 12-h light/dark cycle. Animals were fed a low-protein (2.5%) diet containing high phosphorus (1.3% phosphorus and 0.7% calcium) and 0.3% adenine to induce uremia (SSNIFF Spezialdiäten GmbH). Control animals were fed same diet but without adenine. Every 10 days, a sample of blood was punctured at the tail vein of each animal. Serum and urine creatinine, calcium, and phosphorus were then assessed using standard colorimetric biochemistry analysis (Cobas Mira, Roche, Basel, Switzerland). When a fourfold increase of creatinine was observed compared to control, the rat was considered uremic and suitable for PK experiments. The method was validated using eight animals on control- and adenine-supplemented diet respectively. For PK studies, on the morning of the experimental day, a catheter was inserted in the right carotid artery under halothane anesthesia. Subsequently, rats were allowed to recover for 3 h and uremic and non-uremic rats, respectively, were assigned to three groups of six rats each. […] Blood aliquots were drawn after drug administration, centrifuged, decanted, and stored at −80 °C until serum drug quantification by LC-MS, as well as analysis of serum creatinine, calcium, and phosphorus (Cobas Mira).
The bioanalytical method for (OEG2)2-IP4 in rat plasma was further optimized, qualified, and applied to the comparative PK study in adenine and high-phosphate diet-induced VC vs. vitamin D-induced VC animals. The LC-MS/MS analyses were carried out using a Dionex Ultimate RSLC ultra-high-pressure liquid chromatography (UHPLC) system (Thermo Fisher Scientific) coupled with a TSQ Quantiva^TM triple quadrupole mass spectrometer. The samples were stored at 5 °C in the autosampler prior to and during the analyses. […] Gradient elution (solvent A, 20 mM ammonium acetate in water (pH 5); solvent B, ACN) was used according to the program reported in Supplementary Table 18. The injection volume was 10 µL. MS/MS parameters (MRM acquisition, cycle time 0.2 s) for (OEG2)2-IP4 are reported in Supplementary Table 19 and the ESI source, working in negative ionization mode, applied the following parameters: static spray voltage 3000 V ion transfer tube and vaporizer temperatures at 400 and 100 °C, respectively; sheath and auxiliary gas (nitrogen) flow rates at 80 and 3 (arbitrary units). For the quantitative determination in rat plasma, product ion m/z 158.9 was selected because it provided the best sensitivity and selectivity. Calibration curve and quality control samples were prepared by adding 2 μL of working solution to 38 μL rat blank K3EDTA plasma (Biochemed, Winchester, VA) and precipitating plasma protein by addition of 120 μL of MeOH including internal standard OEG11-IP5. Samples were vortexed 1 min and centrifuged at (22,000 × g, 4 °C, 10 min). Supernatants (90 μL) were then transferred into a glass vial with insert and injected onto LC-MS/MS system. Both in adenine and high-phosphate diet-induced VC and vitamin D-induced VC rat PK samples were prepared for analysis in an analogous manner as done for spiked samples (assay volume 40 μL). The LLOQ and LOD in rat plasma for (OEG2)2-IP4 were 50 and 10 ng/mL, respectively. The ULOQ and detection was 50,000 ng/mL.

serum CPP = experiment: CPP calcium, CPP2 hydrodynamic diameter and T50 in rat sera at sacrifice; type: in vivo, male Wistar rats; conditions: 5, 15, 50 mg/kg/day
Protocol: The inhibitory effect of (OEG2)2-IP4 on heart calcifications was significant starting at 15 mg/kg/day (Fig. 6b). The compound’s activity was also evident following von Kossa staining (Fig. 6c) on the thoracic part of the aorta, and quantification of the von Kossa-positive area (Fig. 6d). […] In the femoral artery, reduction in bulk calcium was insignificant for all tested groups, likely due to the low level of calcification detected in the vehicle control (Fig. 6f, Supplementary Table 9).
DLS analysis of CPPs induced in serum samples collected from in vivo adenine-induced VC studies and stored at −20 °C was performed as described for human serum samples and CPP hydrodynamic diameter development was monitored by hourly DLS measurements.
The first group was treated with vehicle (double distilled (d.d.) water), the second, third, and fourth groups were treated with daily doses equivalent of 5, 15, and 50 mg/kg of (OEG2)2-IP4, respectively, in 2 mL d.d. water starting 1 week after the administration of the adenine diet. […] Serum samples were analyzed for creatinine according to the Jaffe method, calcium (using flame atomic absorption spectrometry[74]), and phosphate (DiaSys Diagnostic Systems, Holzheim, Germany) concentrations. […] In addition, serum aliquots were centrifuged (10,000 × g, 4 °C, 30 min) and T50’s were determined as described above. […]

[2] = male, Sprague-Dawley, rat, iv, 10 mg/kg, Healthy
[3] = male, Sprague-Dawley, rat, iv, 10 mg/kg, Uremic

For COCCOCCO[C@@H]1[C@@H](OP(=O)(O)O)[C@H](OCCOCCOC)[C@@H](OP(=O)(O)O)[C@@H](OP(=O)(O)O)[C@H]1OP(=O)(O)O [(OEG2)2-IP4, 4,6-Di-O-(methoxy-diethyleneglycol)-myo-inositol-1,2,3,5-tetrakis(phosphate)], the “fold longer t1/2 in uremic rats” value ([1]; 10 mg/kg i.v.) was 1.6 fold, the “plasma concentration (Figure 4g)” value ([1]; Healthy, i.v., Time 5 min, individual rats) was 34.3554 and 28.9453 and 26.4893 and 36.6347 and 33.1433 and the “plasma concentration (Figure 4g)” value ([1]; Healthy, i.v., Time 0.25 h, individual rats) was 30.5208 and 13.9972 and 12.439 and 10.9827 and 13.2633 and 11.7166. The “plasma concentration (Figure 4g)” value ([1]; Healthy, i.v., Time 0.5 h, individual rats) was 27.5306 and 9.488 and 4.56 and 3.6178 and 4.794 and 4.014, the “plasma concentration (Figure 4g)” value ([1]; Healthy, i.v., Time 1 h, individual rats) was 9.6556 and 4.29 and 0.6765 and 0.5745 and 0.5328 and 0.7985 and the “plasma concentration (Figure 4g)” value ([1]; Healthy, i.v., Time 2 h, individual rats) was 7.991 and 1.14 and 0.125 and 0.07468 and 0.07899 and 0.1206. For the same compound, the “plasma concentration (Figure 4g)” value ([1]; Healthy, i.v., Time 3 h, individual rats) was 3.3004 and 0.5084 and 0.05745 and 0.03303 and 0.0316 and 0.04883, the “plasma concentration (Figure 4g)” value ([1]; Healthy, i.v., Time 4 h, individual rats) was 2.7015 and 0.1767 and 0.01436 and 0.02585 and 0.02298 and 0.0316 and the “plasma concentration (Figure 4g)” value ([1]; Uremic, i.v., Time 5 min, individual rats) was 32.8173 and 29.5312 and 43.7899 and 28.895 and 62.6472 and 41.0266. The “plasma concentration (Figure 4g)” value ([1]; Uremic, i.v., Time 10 min, individual rats) was 43.2182 and 28.9366, the “plasma concentration (Figure 4g)” value ([1]; Uremic, i.v., Time 0.25 h, individual rats) was 27.5292 and 20.3309 and 31.0464 and 22.8615 and the “plasma concentration (Figure 4g)” value ([1]; Uremic, i.v., Time 0.5 h, individual rats) was 20.0681 and 12.3154 and 17.5978 and 17.7285. For the same compound, the “plasma concentration (Figure 4g)” value ([1]; Uremic, i.v., Time 1 h, individual rats) was 13.305 and 19.9618 and 12.7047 and 6.171 and 9.641 and 11.83, the “plasma concentration (Figure 4g)” value ([1]; Uremic, i.v., Time 1.5 h, individual rats) was 9.875 and 10.075 and the “plasma concentration (Figure 4g)” value ([1]; Uremic, i.v., Time 2 h, individual rats) was 4.81 and 2.841 and 7.088 and 3.03 and 4.689 and 9.284. The “plasma concentration (Figure 4g)” value ([1]; Uremic, i.v., Time 3 h, individual rats) was 1.893 and 4.314 and 1.879 and 2.2534, the “plasma concentration (Figure 4g)” value ([1]; Uremic, i.v., Time 4 h, individual rats) was 1.159 and 0.6736 and 3.1697 and 1.081 and 1.337 and the concentration at 5 min ([1]; male, Sprague-Dawley, rat, plasma, iv, 10 mg/kg, Healthy, i.v., Time 5 min, individual rats, read-out: plasma concentration (Figure 4g)) was 51.8 µM. It also gave a concentration at 10 min ([1]; male, Sprague-Dawley, rat, plasma, iv, 10 mg/kg, Healthy, i.v., Time 10 min, individual rats, read-out: plasma concentration (Figure 4g)) of 36.1 µM, a concentration at 10 min ([1]; male, Sprague-Dawley, rat, plasma, iv, 10 mg/kg, Uremic, i.v., Time 10 min, individual rats, read-out: plasma concentration (Figure 4g)) of 46 µM and a concentration at 0.25 h ([1]; male, Sprague-Dawley, rat, plasma, iv, 10 mg/kg, Uremic, i.v., Time 0.25 h, individual rats, read-out: plasma concentration (Figure 4g)) of 27.7 µM. For the same compound, the concentration at 0.5 h ([1]; male, Sprague-Dawley, rat, plasma, iv, 10 mg/kg, Uremic, i.v., Time 0.5 h, individual rats, read-out: plasma concentration (Figure 4g)) was 19 µM, the concentration at 1.5 h ([1]; male, Sprague-Dawley, rat, plasma, iv, 10 mg/kg, Uremic, i.v., Time 1.5 h, individual rats, read-out: plasma concentration (Figure 4g)) was 7.2 µM and the AUC(0-inf) [1, 2] was 18.5 µM·h. The Cmax [1, 2] was 35 ± 9 µM, the clearance [1, 2] was 17.9 ± 7.7 mL/min/kg and the half-life [1, 2] was 52 ± 14 min. For the same compound, the AUC(0-t) [1, 2] was 17.8 µM·h, the MRT last [1, 2] was 26 min and the AUC(0-inf) [1, 3] was 45.6 µM·h. The Cmax [1, 3] was 43 ± 12 µM, the clearance [1, 3] was 5.8 ± 2 mL/min/kg and the half-life [1, 3] was 83 ± 47 min. For the same compound, the AUC(0-t) [1, 3] was 37 µM·h, the MRT last [1, 3] was 53 min and the “serum CPP calcium content, CPP2 hydrodynamic diameter and T50 in sera at sacrifice” value (serum CPP) was “did not differ between treatment groups”.
